Consider five molecules from patent US20120022000A1, “USE OF A PEPTIDE IN THE TREATMENT OR PREVENTION OF METASTASIS” (UNIVERSITE DE LAUSANNE, priority 2009, published 2012).

Marks after values point to notes of the source that are not given here.

Data set [1] deals with U2OS cells. Kind of data set: Immuno-cytochemistry of actin and focal adhesions (phospho-FAK). The settings on record: 13 μM over-night (FIG. 6). The class given is cell-based. How it is done: FIG. 6: Actin and focal adhesion changes in TAT-RasGAP317-326-treated cells. 100,000 U2OS cells were cultured on coverslips for 24 hours and then treated with 13 μM TAT-RasGAP317-326, 13 μM TAT or left untreated (control) over-night. The cells were then fixed with 2% PFA, and peinieabilized with PBS Triton-X100 0.2%. The nuclei were stained with Hoechst 33342 and actin with Alexa Fluor 488 phalloidin. Focal adhesions were stained with an anti-phospho Tyr397 FAK. Representative images are shown.
100,000 U2OS cells were grown on coverslips overnight, and then treated as described in the figures. The cells were then fixed and the nuclei were stained in PBS containing 2% paraformaldehyde (weight/vol) (Acros Organics, catalog no: 30525-89-4) and 10 μg/ml Hoechst 33342 (Molecular Probe) for 15 minutes. The following steps were performed at room temperature in the absence of light. The cells were washed twice in PBS, permeabilized 10 minutes in PBS, 0.2% Triton X-100, washed twice in PBS, neutralized 15 minutes in DMEM, 10% FBS, and washed twice in PBS. The coverslips were then incubated 20 minutes in PBS 1.65 μM Alexa Fluor 488 phalloidin (Invitrogen, A12379). After a rapid wash in PBS, they were incubated with a polyclonal rabbit anti-phospho-FAK (tyrosine 397) primary antibody (1:50 dilution in DMEM, 10% FBS; Cell Signaling, catalog no: 3283) for 1 hour. After a rapid wash in PBS, the coverslips were incubated 1 hour with a donkey CyTM-anti-rabbit secondary antibody (1:500 dilution in DMEM, 10% FBS; Jackson ImmunoResearch, no. 711-165-152). The slides were finally washed twice in PBS and mounted in Vectashield mounting medium (Vector laboratories Inc.). Images were taken with a Zeiss Axioplan 2 imaging microscope.

A further data set relates to 4T1-luc2 cells. Kind of data set: In vivo metastases model (orthotopic mammary fatpad 4T1-luc2 tumor). The arrangement: species or system nude mice. On the procedure:
100,000 4T1-luc2 cells were injected orthotopically into the mammary fatpad of nude mice. Four groups of eight nude mice were then treated with or without 0.16 mg TAT-RasGAP317-326 per kg of mouse on the first, third and fifth day of the week during 28 days. The tumor volumes were measured with a caliper at the indicated time points and were calculated according to the formula described in the “MATERIAL AND METHODS” section. A repeated measure ANOVA was performed and no differences were found between the two groups.
Nude mice were injected into the mammary fatpads with 100,000 murine mammary cancer 4T1-luc2 cells that constitutively express the firefly luciferase. For the injection, the mouse skin was incised in the pelvic area to reach the fatpads, and the wounds were closed after injection with surgery hooks. The cells were injected in 100 μl Matrigel (BD Biosciences, 20% in PBS). Tumor volumes were quantified as follow: The tumor width and length were measured with a caliper and the tumor volume was calculated according to the formula tumor volume [mm3]=(12*L)*π/6, where 1 is the smallest measure between the width and the length (in mm), and L the longest (in mm) In order to quantify metastases, the mice were injected i.p. with 200 μl D-Luciferin Firefly (15 mg/ml in PBS) in PBS, Biosynth, No. L-8220) and luminescence was measured 10 minutes afterwards with an IVIS Lumina 2 apparatus (Xenogen). Metastases were assessed at the indicated time points in vivo and at the last day (28 days after tumor injection) ex vivo for the following organs: lung, liver and axillary and brachial lymph nodes. For the ex vivo measurements, the mice were injected with luciferin as described above, and sacrificed 10 minutes later to excise organs. The light emitted by the organs was measured in a Luciferin bath (150 μg/ml D-Luciferin Firefly in 2 ml PBS per organ). Luminescence is presented as the number of photons emitted per second (p/s).
28 days after cancer cells injection, the same mice than those in FIG. 5 were subjected to ex vivo metastases luminescence measurements. The lung, liver, axillary and brachial lymph node (LN) metastases were quantified by luminescence after luciferine i.p. injection. Organs emitting light were considered as bearing metastases. The asterisk denotes a significant difference against the control treatment (0 mg/kg TAT-RasGAP317-326) (p=0.0238 after an Fisher's Exact Test).

For data set [2], the system named is U2OS cells. As to the kind of experiment: Proliferation assay. Format: cell-based. The settings on record: 13 μM (FIG. 3). How it is done:
30,000 U2OS cells were seeded in 3.5 cm-plates. The cell number in the plates were then determined 24 and 48 hours later as described in FIG. 1, panel (a). The graph represents the number of cells per mm2 (mean±95% CI of 3 independent experiments). No significant difference between the growth curves could be detected (repeated measures ANOVA). 30,000 U2OS cells were seeded in 3.5 cm plates and cultured overnight. The cells were either treated with 13 μM TAT, 13 μM TAT-RasGAP317-326 or left untreated. Pictures were taken after 0 h, 24 h and 72 hours and cells were counted. The number of cells was then adjusted per mm2.

In data set [3] the test system is U2OS, HeLa, HCT116 and HaCaT. Kind of data set: Wound-healing experiment. The class given is cell-based. The settings on record: 13 μM peptide, HCT116, HaCaT (FIG. 2). On the procedure: Cells were cultured until confluency and a wound in the cell layer was done with a yellow tip. The cells were then left untreated or incubated 24 hours with 13 μM of TAT or TAT-RasGAP317-326 peptides. Pictures were taken just after wounding (0 hour) and at the indicated times. Results correspond to the width of the wound (mean±95% CI of 4 independent experiments). Asterisks denote significant differences between the control and the other conditions at a given time point (t-test after Bonferroni correction). Bar=100 μm. Cells were grown until confluency and a wound in the cell layer was done with a yellow tip. The cells were washed once with PBS to remove debris and then left untreated or incubated 24 hours and 48 hours with 13 μM of TAT or TAT-RasGAP317-326 peptides (in DMEM+10% FBS). Pictures were taken just after wounding (0 h) and at the indicated times. The wound widths were measured as described earlier (Bulat et al., 2009).

The test system of data set [4] is U2OS cells. As to the kind of experiment: Adhesion assay (trypsinization assay) with peptides. Format: cell-based. Particulars: for cell adherence (resistance to trypsin): U2OS cells, 8 hours (FIG. 4A). On the procedure: (a) U2OS cells were cultured until confluency and treated during 0 h, 1 h, 3 h, 8 h and 14 h with 13 μM TAT, 13 μM TAT-RasGAP317-326 or without treatment. The cells were then trypsinized during 5 minutes (or not trypsinized), washed with PBS and stained with GIEMSA. Four pictures were taken per plate using a Zeiss Axioplan 2 microscope equipped with a 10× objective and the number of cells per surface area was determined. Representative images are shown. The graph represents the number of cells per mm^2 (mean±95% CI of 3 independent experiments). Scale bar=100 μm. (b) Trypsinization assay on cancerous cell lines (U2OS, HeLa, 4T1, HCT116, SAOS) and non-cancerous cell lines (HEK293T and HaCaT). Cells were treated and analyzed as in panel (a). Values for control and TAT treatments are shown literally as they were too low to be seen on the graphs. (c) Reversibility of the TAT-RasGAP317-326 induced adhesion. Confluent U2OS cells were treated during 24 h with 13 μM TAT, 13 μM TAT-RasGAP317-326 or not treated. The cells were then washed and incubated in culture medium without peptides for the indicated periods of time. Cells were analyzed as in panel (a).
(§1) (a) RasGAP317-326 without cell-permeation sequences is not able to render cells resistant to trypsin. 300,000 U2OS cells were cultured overnight in 3.5 cm plates and then treated during 8 hours with the indicated peptides (the concentration of each peptide was 13 μM). The cells were then subjected to a trypsinization assay. (b) 2×10^6 HEK293T cells were cultured overnight in 10 cm plates and transfected with empty vector (pcDNA3) or vectors encoding HA-tagged versions of fragment N2 or the 317-326 sequence of RasGAP. One day later, the cells were subjected to a trypsinization test. Results in (a) and (b) correspond to the number of cells per mm2 (mean±95% CI of 3 independent experiments). Some values are shown literally as they were too low to be seen on the graphs.
5×10^5 cells were grown overnight and then incubated with peptides or transfected (see the figures for the specific conditions used). The treated cells were washed with phosphate buffered saline (PBS) and then incubated with trypsin-EDTA solution (Sigma; catalog no: T3924; […]) during 5 minutes. The plates were gently hand-rocked 2 and 4 minute after trypsin addition. Detached cells were removed with a PBS wash and the remaining attached cells were dried, incubated in ethanol during 10 minutes, dried again, and finally stained with GIEMSA (Invitrogen) for 45 minutes. Four and six phase contrast pictures were taken (Zeiss Axioplan, 10× objective) for 3.5 cm-plates and 10 cm-plates, respectively. The number of cells per mm2 was then determined.

The conditions of data set [5]: peptide by itself; Michod et al., 2004; 2009; cited from earlier work.
Another data set has as its target T1, trypsin (Sus scrofa, UniProt P00761).
T1 construct: purchased Sigma T3924
As to the kind of experiment: Trypsin pre-incubated with peptide, cell detachment. Particulars: trypsin pre-incubated one hour with peptide; data not shown. From the text:
TAT-RasGAP317-326 could increase adherence and block migration by acting in the cellular environment or at the surface of cells. Alternatively, these effects could be induced only once the peptide has entered cells. The following evidence favors the second possibility.

The subject of a further data set is HEK293T cells. Kind of data set: Adhesion assay (trypsinization test) after transfection. Particulars: HEK293T cells transfected with HA-tagged constructs, one day (FIG. 4B). Format: cell-based. On the procedure:
as §1
2×10^6 HEK293T cells were cultured overnight in 10 cm-culture plates and transfected with 18 μg of the plasmid of interest and 2 μg of pEGFP-C1 (a green fluorescent protein-encoding plasmid from Clontech) using the calcium-phosphate method (Jordan et al., 1996). Briefly, plasmids were diluted in 450 μl water and mixed with 50 μl CaCl2 2.5M during 30 minutes. […]
5×10^5 cells were grown overnight and then incubated with peptides or transfected (see the figures for the specific conditions used). […] The number of cells per mm2 was then determined.

Setting [6] is: 0.160 mg/kg, 28 days after cell injection, ex vivo luminescence.

T1 sequence (P00761 9-231): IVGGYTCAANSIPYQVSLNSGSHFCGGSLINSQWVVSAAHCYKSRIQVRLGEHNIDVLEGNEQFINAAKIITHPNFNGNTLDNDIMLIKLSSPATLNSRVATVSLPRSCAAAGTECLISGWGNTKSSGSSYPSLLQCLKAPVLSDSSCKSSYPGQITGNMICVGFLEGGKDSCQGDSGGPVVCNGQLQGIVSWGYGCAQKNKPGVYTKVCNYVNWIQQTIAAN

As for “GRKKRRQRRR [TAT, cell-permeable carrier peptide used as control, reference compound]”, the “actin and focal adhesion localization” value with U2OS cells [1] was “did not exhibit any difference compared to untreated cells”.

On to “GRKKRRQRRRGGWMWVTNLRTD [TAT-RasGAP317-326, RasGAP-derived peptide conjugated to HIV-TAT48-57 through two glycine residues]”, for which, in the data set with 4T1-luc2 cells (0.16 mg per kg on first, third and fifth day of the week during 28 days, nude mice (FIG. 5)), the primary tumor growth entry is recorded as “does not affect primary tumor growth”. In the data set with 4T1-luc2 cells (setting [6]), the “mice with metastases in the indicated organs vs total number of mice: Liver” value is 3/8 and the “mice with metastases in the indicated organs vs total number of mice: Lung” value was 2/8*. The “mice with metastases in the indicated organs vs total number of mice: LN” value in the data set on 4T1-luc2 cells (0.160 mg/kg, 28 days after cell injection, ex vivo luminescence, axillary and brachial lymph nodes) is recorded as 3/8. In addition, the “formation of metastases in other organs” value in the data set on 4T1-luc2 cells (28 days, liver, lymph nodes) is recorded as “apparently no effect”. Besides, the lung metastases result in the data set with 4T1-luc2 cells (28 days, p=0.024, Fisher's Exact Test) was “significant decrease in lung metastases”. Besides, the cell population growth entry with U2OS cells [2] is “does not modulate cell population growth”. In addition, the “ability of the cells to fill wounds (cell migration)” value in data set [3] is listed as “blocked the ability of the cells to fill wounds”. Further, in the data set with U2OS cells [1], the “actin and focal adhesion localization” value is “major changes in actin and focal adhesion localization”; the “cortical actin stress fibers” value is reported as “strong increase”; the “location of focal adhesions” value was “mainly found at the cell's periphery”; the ventral stress fibers result was “almost completely disappeared”. Moreover, the “ability to increase cell adherence when transcription or translation is blocked” value in the data set with U2OS cells [4] (1 μg/ml actinomycin D or 30 μg/ml cycloheximide, data not shown) was “None of the drugs affected the ability”. The cell adhesion entry in the data set with U2OS cells [4] (13 μM peptide, trypsinization 5 minutes, U2OS and other cell lines (FIG. 1)) was “induces cell adhesion”. Besides, the cell survival result in data set [5] is “does not, by itself, affect cell survival”. Besides, the “trypsin inhibitory effect (ability of trypsin to detach cells)” value in the data set with trypsin is “did not decrease the ability of trypsin to detach cells”.

Take “RRRRRRRRRGGWMWVTNLRTD [R9—RasGAP317-326, RasGAP317-326 conjugated to a 9 arginine peptide]”: the “cell adherence (resistance to trypsin)” value in the data set with U2OS cells [4] (13 μM peptide) was “functions as a cell adherence promoting agent”.

In the case of “WMWVTNLRTD (listed as Homo sapiens) [RasGAP317-326]”, the “cell adherence (resistance to trypsin)” value in the data set on U2OS cells [4] (13 μM peptide) is listed as “unable to increase cell adherence”.

B1: RasGAP Fragment N2: HA-tagged human RasGAP amino acid 158-455 sequence, expressed from plasmid HA-N2.dn3 (protein, UniProt P20936 158-455, looked up, fragment)
chain: SLDGPEYEEEEVAIPLTAPPTNQWYHGKLDRTIAEERLRQAGKSGSYLIRESDRRPGSFVLSFLSQMNVVNHFRIIAMCGDYYIGGRRFSSLSDLIGYYSHVSCLLKGEKLLYPVAPPEPVEDRRRVRAILPYTKVPDTDEISFLKGDMFIVHNELEDGWMWVTNLRTDEQGLIVEDLVEEVGREEDPHEGKIWFHGKISKQEAYNLLMTVGQVCSFLVRPSDNTPGDYSLYFRTNENIQRFKICPTPNNQFMMGGRYYNSIGDIIDHYRKEQIVEGYYLKEPVPMQDQEQVLNDTVD
modifications: HA tag
On to B1, for which the “cell adherence after transfection” value in the data set on HEK293T cells is recorded as “Increases Cell Adherence”.
